# Literature values in US12031126B2, “Methods and compositions for simultaneous editing of both strands of a target double-stranded nucleotide sequence” (The Broad Institute, Inc., priority 2020, dated 2024).
# pKd: −log10 of the molar value.
# Key:
# FKBP12 F36V = FKBP12 F36V (Homo sapiens, UniProt P62942, F37V); conditions: cited from earlier work
# FKBP12 = FKBP12 (Homo sapiens, UniProt P62942); conditions: cited from earlier work
# Chain of FKBP12 (P62942 whole entry): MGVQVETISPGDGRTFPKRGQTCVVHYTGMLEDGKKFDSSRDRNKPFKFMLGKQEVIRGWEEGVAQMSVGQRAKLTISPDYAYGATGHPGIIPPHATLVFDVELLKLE
# Chain of FKBP12 F36V (P62942 whole entry F37V): as the sequence (P62942 whole entry) above, with F37V counted along it
structure (smiles),measurement,setting,value
CC[C@H](C(=O)N1CCCC[C@H]1C(=O)O[C@H](CCc1ccc(OC)c(OC)c1)c1cccc(OCC(=O)O)c1)c1cc(OC)c(OC)c(OC)c1 [AP1867],pKd,FKBP12 F36V,10.03
same,pKd,FKBP12,7.17
